Legend:
[1] = Hydroxyapatite (HA) Binding Assay; conditions: binding to hydroxyapatite; 10^−5 M analyte, 50 mM Tris-HCl pH 7.4, 1% DMSO; tetracycline reference
From the text: The supernatant was transferred to another microcentrifuge tube.

[2] = test system: bilaterally ovariectomized (OVX) rats; assay: Uterine mass and uterine mass to body weight ratio in OVX rats; format: in vivo, Sprague-Dawley female rats; conditions: for effect on uterine mass to body weight ratio: FIG. 9
Method: (§1) Animals. Six month old, bilaterally ovariectomized (OVX) or sham operated Sprague-Dawley female rats (Harlan Laboratories, Indianapolis, Ind.) were maintained at the University of Louisville Research Resources Center at 22° C. with a 12-h light/dark cycle and ad libitum access to tap water and rodent chow (Purina Laboratory Rodent Diet 5001). All animal procedures were approved by the Institutional Animal Care and Use Committee, which is certified by the American Association for Accreditation of Laboratory Animal Care.
(§2) In vivo experiments were conducted in order to investigate the efficacy of compounds of the presently-disclosed subject matter. In all of the experiments, OVX and sham operated rats were randomly divided into groups of 5-7 animals. In all of the studies experimental groups included: i) Sham-operated control (euthanized six weeks post surgery as a pretreatment control), ii) OVX control (euthanized six weeks post surgery as a pretreatment control), iii) Sham control receiving vehicle, iv) OVX control receiving vehicle, v) OVX receiving 17-ethinyl estradiol (equimolar concentration with a selected test compound), vi) OVX receiving alendronate (1.6 mg/kg), and vii) OVX receiving parathyroid hormone 1-34 (PTH) (80 μg/kg). 17-ethinyl estradiol (17 EE) is a free estrogenic agent known to be orally active, and can serve as an example of an anti-catabolic agent. Alendronate (Alen) is a bisphosphonate that is currently used to treat osteoporosis (e.g., Fosamax®, Merck & Co., Inc,), and can serve as an example of an anti-catabolic agent. Parathyroid hormone 1-34 (PTH) is an agent that can serve as an example of an anabolic agent. All compounds and vehicle (1% DMSO in corn oil) were administered three times per week orally by gavage except for PTH which was administered via a subcutaneous injection in a volume of 0.5 ml/kg body mass thrice per week. Compound administration was initiated 6 weeks following surgery and lasted for 6 weeks (18 doses total).
(§3) Compounds of the presently-disclosed subject matter were orally administered to OVX rats at various doses. As indicated above all BTE's were administered three times per week for 6 weeks.
(§4) Following 6 weeks of treatment, blood was obtained from each animal via cardiac puncture following an overnight fast and animals were subsequently euthanized via carbon dioxide asphyxiation. Blood was centrifuged immediately and the obtained serum samples were aliquoted and stored at −70° C. prior to analysis. Uteri were removed and fresh weights were obtained. Uterine masses were normalized to body mass at the end of the experiment. The left and right femora and left and right tibiae were subsequently collected from each animal, cleaned of soft tissue, and stored in saline at 4° C. prior to analysis.
Uterine Mass and Body Weight. […] Uterine mass can be used to as a measure of estrogenic effect occurring in a tissue outside the bone in response to treatment with a test compound or composition. Generally, a lower uterine mass can be associated with a decreased risk of adverse side effects associated with the test compound or composition. A ratio of uterine mass to body weight can be used to correct for any increase in uterine size attributable to the relative size of the individual animal. Body weight and/or uterine mass also serve as an indirect measures of toxicity of a test compound.

[3] = test system: bilaterally ovariectomized (OVX) rats; assay: RatLaps ELISA for C-telopeptide fragments of collagen type I (CTX-I) in serum; format: in vivo, Sprague-Dawley female rats; conditions: Formulas 66 and 67 at 250 μg/kg doses, 17-ethinyl estradiol equimolar, FIG. 16
Method: as §1
as §2, with “All compounds and vehicle (1% DMSO in corn oil) were administered three times per week orally by gavage except for PTH which was administered via a subcutaneous injection in a volume of 0.5 ml/kg body mass thrice per week. Compound administration was initiated 6 weeks following surgery and lasted for 6 weeks (18 doses total).” left out
RatLaps™ ELISA for C-telopeptide Fragments of Collagen Type I (CTX-I). […] Bone resorption (CTX-I) was quantitatively assessed in rat serum using the commercially available RatLaps™ ELISA KIT from Nordic Bioscience Diagnostics A/S (Herlev, Denmark) as recommended by the manufacturer.

[4] = Body weight of OVX rats during treatment; format: in vivo, Sprague-Dawley female rats
Method: as §1, §2, §3, §4
Uterine Mass and Body Weight. […]

[5] = test system: bilaterally ovariectomized (OVX) rats; assay: Femoral density via Archimedes' Principle (whole bone); format: in vivo, Sprague-Dawley female rats; conditions: right femora
Method: as §1, §2
(§5) Following 6 weeks of treatment, blood was obtained from each animal via cardiac puncture following an overnight fast and animals were subsequently euthanized via carbon dioxide asphyxiation. Blood was centrifuged immediately and the obtained serum samples were aliquoted and stored at −70° C. prior to analysis. Uteri were removed and fresh weights were obtained. […]
Femoral Density via Archimedes' Principle. […] Densities were determined using Archimedes' Principle according to the following formula: density=[mass of hydrated femur/(mass of hydrated femur−mass of hydrated femur submerged in water)]×density of distilled water at a given temperature (See Keenan, et al. Comparison of bone density measurement techniques: DXA and Archimedes' principle. J Bone Miner Res 1997; 12:1903-7.). […]

[6] = test system: bilaterally ovariectomized (OVX) rats; assay: Regional femoral density via Archimedes' Principle; format: in vivo, Sprague-Dawley female rats
Method: as §1, §2
as §5, with “obtained. Uterine masses were normalized to body mass at the end of the experiment.” for “obtained.”
Regional Femoral Density via Archimedes' Principle. […] Briefly, each femur was measured with a Cen-Tech Digital Caliper and a cut was made from each end at 20% of the length of the femur plus half the width of the blade. Subsequently, the bone marrow was washed out of the femoral diaphysis and the Archimedes density for each of the three femoral regions was determined as described above.

[7] = test system: bilaterally ovariectomized (OVX) rats; assay: Bone mechanical competence indentation test; format: in vivo, Sprague-Dawley female rats; conditions: proximal tibial metaphysis, present-tense statement, no data
Method: as §1
In vivo experiments were conducted in order to investigate the efficacy of compounds of the presently-disclosed subject matter. In all of the experiments, OVX and sham operated rats were randomly divided into groups of 5-7 animals. In all of the studies experimental groups included: i) Sham-operated control (euthanized six weeks post surgery as a pretreatment control), ii) OVX control (euthanized six weeks post surgery as a pretreatment control), iii) Sham control receiving vehicle, iv) OVX control receiving vehicle, v) OVX receiving 17-ethinyl estradiol (equimolar concentration with a selected test compound), vi) OVX receiving alendronate (1.6 mg/kg), and vii) OVX receiving parathyroid hormone 1-34 (PTH) (80 μg/kg). 17-ethinyl estradiol (17 EE) is a free estrogenic agent known to be orally active, and can serve as an example of an anti-catabolic agent. […]

ICR Swiss mice = assay: Periosteal bone formation in mouse calvarial injection model; format: in vivo; conditions: subcutaneous over calvariae; histomorphometry; present-tense statement, no data
Method: Stimulation of Periosteal Bone Formation in a Mouse Calvarial Injection Model. The anabolic (bone formation) potential of compounds of the presently-disclosed subject matter are evaluated in the mouse calvarial injection model. Briefly, 4-week-old ICR Swiss mice are injected subcutaneously over the surface of the calvariae with compounds of the presently-disclosed subject matter at concentrations of 0, 1, 3, and 10 mg/kg/day for 5 days (twice a day). Microtubule inhibitor TN-16 (5 mg/kg/day for 2 days, twice a day) are used as a positive control. Mice are sacrificed two weeks after the injections are completed. Dissected calvarial samples are fixed in 10% phosphate-buffered formalin for 2 days, decalcified in 10% EDTA for 2 weeks and then embedded in paraffin. Histological sections are cut and stained with H&E and orange G. New woven bone formation (new bone area) is quantified by histomorphometry using the OsteoMeasure system (OsteoMetrics Inc., Atlanta, Ga.).

[8] = test system: bilaterally ovariectomized (OVX) rats; assay: Rat Osteocalcin EIA (serum); format: in vivo, Sprague-Dawley female rats; conditions: versus OVX controls; FIG. 17
Method: as §1
(§6) In vivo experiments were conducted in order to investigate the efficacy of compounds of the presently-disclosed subject matter. In all of the experiments, OVX and sham operated rats were randomly divided into groups of 5-7 animals. […]
Rat Osteocalcin EIA. […] Rat serum osteocalcin levels were measured using the Rat Osteocalcin EIA Kit from Biomedical Technologies, Incorporated (Stoughton, Mass.) as recommended by the manufacturer.

[9] = test system: bilaterally ovariectomized (OVX) rats; assay: Lipid metabolism (total cholesterol, HDL, LDL) in rat serum; format: in vivo, Sprague-Dawley female rats; conditions: present-tense statement, no data
Method: as §1, §6
Quantitative Determination of Lipid Metabolism (Total Cholesterol HDL, and LDL) in Rat Serum. Total cholesterol, high-density lipoprotein (HDL), and low-density lipoprotein (LDL) were quantitatively determined in the serum of rats in order to evaluate the extraosseous effects of estrogen treatment on lipid metabolism. […]

[10] = test system: bilaterally ovariectomized (OVX) rats; assay: Volume fraction, ex vivo micro-computed tomography of tibia; format: in vivo, Sprague-Dawley female rats; conditions: for bone density by trabecular volume fraction: ex vivo micro-CT, compared to OVX animals, FIG. 14; for bone density in three-dimensional micro-CT images: reconstructed images, FIG. 15
Method: as §1, §2, §4
Volume Fraction—Ex vivo micro-computed tomography (μCT). Volume fraction is a representative value for the amount of bone that occupies a given volume or space. […]

[11] = OVX rats, oral, test compounds 25 or 250 μg/kg, 17-ethinyl estradiol equimolar, 3 times per week for 6 weeks, FIG. 8
[12] = OVX rats, oral, test compounds 25 or 250 μg/kg, 17-ethinyl estradiol equimolar, 3 times per week for 6 weeks
[13] = oral 3 times per week for 6 weeks, FIG. 1
[14] = proximal and distal left femur, FIGS. 5 and 6
[15] = oral 25 or 250 μg/kg, 3 times per week for 6 weeks, FIG. 7
[16] = proximal and distal left femur and left femoral diaphysis, oral 25 or 250 μg/kg, FIGS. 11, 12, 13

C[C@]12CC[C@@H]3c4ccc(O)cc4CC[C@H]3[C@@H]1CC[C@@H]2O [17,β-estradiol]
Binding Index [1]: −8

C#C[C@]1(O)CC[C@H]2[C@@H]3CCc4cc(O)ccc4[C@H]3CC[C@@]21C [17-ethinyl estradiol, reference compound]
effect on uterine mass [2, 11]: induced an increase | effect on uterine mass to body weight ratio [2, 12]: induced an increase | production of CTX-I (bone resorption) [3]: decreased the production of CTX-1 to below sham levels

COc1ccc(N)c(O)c1C(N)=O [BTA-2]
effect on body weight [4, 13]: no effect | effect on uterine mass ([2]; rat, in vivo, po): no effect | whole bone density ([5]; FIG. 4): not significantly effected | regional bone density [6, 14]: not significantly effected

NC(=O)c1c(OCc2ccccc2)ccc(N)c1O [BTA-3]
effect on body weight [4, 13]: no effect | effect on uterine mass ([2]; rat, in vivo, po): no effect | whole bone density ([5]; FIG. 4): not significantly effected | regional bone density [6, 14]: not significantly effected

CCCCOP(=O)(OCCCC)Oc1ccc2c(c1)CCC1C2CC[C@]2(C)C1CC[C@H]2OCCC(=O)Nc1ccc(OC)c(C(N)=O)c1O (stereo partly drawn) [Formula 66]
bone strength [7]: increase | effect on body weight [4, 15]: limited or no effect | new bone area (ICR Swiss mice): increase | effect on uterine mass [2, 11]: limited or no effect | effect on uterine mass to body weight ratio [2, 12]: limited or no effect | whole bone density ([5]; oral 25 or 250 μg/kg, FIG. 10): in the same ranges as those animals receiving 17-ethinyl estradiol (17 EE), Alendronate (Alen), or Parathyroid hormone 1-34 (PTH) | serum osteocalcin levels [8]: lower than in OVX controls | effect on lipid metabolism [9]: limited or no effect | production of CTX-I (bone resorption) [3]: do not inhibit | regional bone density [6, 16]: increased | bone density by trabecular volume fraction [10]: increased | bone density in three-dimensional micro-CT images [10]: affected an increase

COc1ccc(NC(=O)CCO[C@@H]2CCC3C4CCc5cc(OP(=O)(OCc6ccccc6)OCc6ccccc6)ccc5C4CC[C@]32C)c(O)c1C(N)=O (stereo partly drawn) [Formula 67]
bone strength [7]: increase | effect on body weight [4, 15]: limited or no effect | new bone area (ICR Swiss mice): increase | effect on uterine mass [2, 11]: limited or no effect | effect on uterine mass to body weight ratio [2, 12]: limited or no effect | whole bone density ([5]; oral 25 or 250 μg/kg, FIG. 10): in the same ranges as those animals receiving 17-ethinyl estradiol (17 EE), Alendronate (Alen), or Parathyroid hormone 1-34 (PTH) | serum osteocalcin levels [8]: lower than in OVX controls | effect on lipid metabolism [9]: limited or no effect | production of CTX-I (bone resorption) [3]: do not inhibit | regional bone density [6, 16]: increased | bone density by trabecular volume fraction [10]: increased | bone density in three-dimensional micro-CT images [10]: affected an increase
